Here are results for 13 compounds from ChEMBL document CHEMBL3351253, “Sterol fatty acid esters from the mushroom Hericium erinaceum and their PPAR transactivational effects” (J Nat Prod, 2014).

One may read the EC50 as the midpoint of the concentration-response curve. A higher EC50 goes with a need for much substance.

Structures are written as SMILES.

Format in all cases: cell-based
The target of data set [1] is T1, Peroxisome proliferator-activated receptor (Homo sapiens, UniProt P37231+Q07869+Q03181).
T1 sequence (P37231 whole entry): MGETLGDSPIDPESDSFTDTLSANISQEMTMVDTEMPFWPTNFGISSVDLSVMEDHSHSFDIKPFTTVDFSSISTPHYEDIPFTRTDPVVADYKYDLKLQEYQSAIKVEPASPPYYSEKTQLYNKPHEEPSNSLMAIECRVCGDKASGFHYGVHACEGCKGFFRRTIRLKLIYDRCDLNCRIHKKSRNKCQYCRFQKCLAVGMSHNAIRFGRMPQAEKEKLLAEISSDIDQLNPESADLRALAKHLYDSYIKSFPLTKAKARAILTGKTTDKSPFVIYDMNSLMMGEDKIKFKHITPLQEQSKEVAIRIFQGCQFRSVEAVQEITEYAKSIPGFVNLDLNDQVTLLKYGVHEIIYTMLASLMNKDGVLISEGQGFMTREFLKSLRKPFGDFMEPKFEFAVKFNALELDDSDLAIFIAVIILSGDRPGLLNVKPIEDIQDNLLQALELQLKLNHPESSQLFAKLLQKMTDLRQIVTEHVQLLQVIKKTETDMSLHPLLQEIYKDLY
T1 sequence (Q07869 whole entry): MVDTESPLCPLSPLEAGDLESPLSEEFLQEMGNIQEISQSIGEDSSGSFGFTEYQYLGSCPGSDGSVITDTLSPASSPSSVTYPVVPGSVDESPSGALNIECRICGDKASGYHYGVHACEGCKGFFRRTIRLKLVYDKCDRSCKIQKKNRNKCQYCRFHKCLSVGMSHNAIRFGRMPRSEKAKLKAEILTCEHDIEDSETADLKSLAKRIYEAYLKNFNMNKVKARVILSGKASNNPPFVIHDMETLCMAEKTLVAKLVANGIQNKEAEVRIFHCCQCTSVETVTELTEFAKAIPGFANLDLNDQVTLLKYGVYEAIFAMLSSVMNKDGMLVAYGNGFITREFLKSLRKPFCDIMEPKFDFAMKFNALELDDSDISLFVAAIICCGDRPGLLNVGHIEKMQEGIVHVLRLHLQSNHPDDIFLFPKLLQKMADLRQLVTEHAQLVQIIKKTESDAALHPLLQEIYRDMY
T1 sequence (Q03181 whole entry): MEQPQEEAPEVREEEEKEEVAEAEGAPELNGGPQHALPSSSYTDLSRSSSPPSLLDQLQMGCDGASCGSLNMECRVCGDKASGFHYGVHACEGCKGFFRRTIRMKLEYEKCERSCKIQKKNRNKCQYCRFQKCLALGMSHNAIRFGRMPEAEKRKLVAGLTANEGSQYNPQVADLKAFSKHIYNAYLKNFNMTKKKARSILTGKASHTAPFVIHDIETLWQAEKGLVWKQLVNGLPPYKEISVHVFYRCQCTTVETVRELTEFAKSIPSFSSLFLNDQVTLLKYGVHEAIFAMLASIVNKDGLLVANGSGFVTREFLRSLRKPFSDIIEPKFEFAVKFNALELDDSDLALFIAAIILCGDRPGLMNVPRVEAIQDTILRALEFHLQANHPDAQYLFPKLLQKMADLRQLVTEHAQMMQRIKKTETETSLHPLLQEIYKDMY
The experiment in a line: (§1) Transactivation of PPAR transfected in human HepG2 cells after 20 hrs by PPAR-luciferase assay.

The test system of the next data set is HepG2. The experiment in a line: Cytotoxicity against human HepG2 cells assessed as CCK8 after 24 hrs. Conditions: hepg2, 24 h.
Data set [2] concerns the target T2, Peroxisome proliferator-activated receptor delta (Homo sapiens) (UniProt Q03181).
T2 sequence (whole entry): T1 sequence (Q03181 whole entry)
Briefly: Transactivation of human Gal4-PPARbeta/delta LBD transfected in human HepG2 cells assessed as stimulation at 10 uM after 20 hrs by luciferase reporter gene assay relative to vehicle-treated control.

Data set [3] concerns the target T3, Peroxisome proliferator-activated receptor gamma (Homo sapiens) (UniProt P37231).
T3 sequence (whole entry): T1 sequence (P37231 whole entry)
The experiment in a line: Transactivation of human Gal4-PPARgamma LBD transfected in human HepG2 cells assessed as stimulation at 5 uM after 20 hrs by luciferase reporter gene assay relative to vehicle-treated control.

Data set [4] addresses Peroxisome proliferator-activated receptor (Homo sapiens) (UniProt P37231+Q07869+Q03181). The description is as §1.
The target in data set [5] is T4, Peroxisome proliferator-activated receptor alpha (Homo sapiens) (UniProt Q07869).
T4 sequence (whole entry): T1 sequence (Q07869 whole entry)
The experiment in a line: Transactivation of human Gal4-PPARalpha LBD transfected in human HepG2 cells assessed as stimulation at 20 uM after 20 hrs by luciferase reporter gene assay relative to vehicle-treated control. On the technique in general: A reporter such as luciferase makes a cellular process visible.

For data set [6], the target named is T2, Peroxisome proliferator-activated receptor delta (Homo sapiens). Briefly: Transactivation of human Gal4-PPARbeta/delta LBD transfected in human HepG2 cells assessed as stimulation at 20 uM after 20 hrs by luciferase reporter gene assay relative to vehicle-treated control.
In data set [7] the target is T4, Peroxisome proliferator-activated receptor alpha (Homo sapiens). The experiment in a line: Transactivation of human Gal4-PPARalpha LBD transfected in human HepG2 cells assessed as stimulation at 5 uM after 20 hrs by luciferase reporter gene assay relative to vehicle-treated control.
For data set [8], the target named is T3, Peroxisome proliferator-activated receptor gamma (Homo sapiens). The experiment in a line: Transactivation of human Gal4-PPARgamma LBD transfected in human HepG2 cells assessed as stimulation at 20 uM after 20 hrs by luciferase reporter gene assay relative to vehicle-treated control.
Data set [9] shares this target. The experiment in a line: Transactivation of human Gal4-PPARgamma LBD transfected in human HepG2 cells assessed as stimulation at 10 uM after 20 hrs by luciferase reporter gene assay relative to vehicle-treated control.
The target of data set [10] is T4, Peroxisome proliferator-activated receptor alpha (Homo sapiens). Briefly: Transactivation of human Gal4-PPARalpha LBD transfected in human HepG2 cells assessed as stimulation at 10 uM after 20 hrs by luciferase reporter gene assay relative to vehicle-treated control.
Data set [11] has as its target T2, Peroxisome proliferator-activated receptor delta (Homo sapiens). The experiment in a line: Transactivation of human Gal4-PPARbeta/delta LBD transfected in human HepG2 cells assessed as stimulation at 5 uM after 20 hrs by luciferase reporter gene assay relative to vehicle-treated control.
Data set [12] has as its target T4, Peroxisome proliferator-activated receptor alpha (Homo sapiens). Briefly: Transactivation of human Gal4-PPARalpha LBD transfected in human HepG2 cells assessed as stimulation at 1 uM after 20 hrs by luciferase reporter gene assay relative to vehicle-treated control.
Data set [13] addresses T2, Peroxisome proliferator-activated receptor delta (Homo sapiens). The experiment in a line: Transactivation of human Gal4-PPARbeta/delta LBD transfected in human HepG2 cells assessed as stimulation at 1 uM after 20 hrs by luciferase reporter gene assay relative to vehicle-treated control.

`CCCCCCCCCCCCCCCC(=O)O[C@H]1CC[C@@]2(C)C(=CC=C3[C@@H]4CC[C@H]([C@H](C)/C=C/[C@H](C)C(C)C)[C@@]4(C)CC[C@@H]32)C1` showed a concentration giving a half-maximal response (EC50) in data set [1] of more than 50 µM. Also, in the data set with HepG2, the Activity entry is on record as “Non-toxic”.
The matching figures for `CC/C=C\C/C=C\C/C=C\CCCCCCCC(=O)O[C@@H]1C=C2[C@@H]3CC[C@H]([C@H](C)/C=C/[C@H](C)C(C)C)[C@@]3(C)CC[C@@H]2[C@@]2(C)CC[C@H](O)C[C@]12O`: more than 50 µM and “Non-toxic”.
Take `CCCCC/C=C\C/C=C\CCCCCCCC(=O)O[C@H]1C2=C3CC[C@H]([C@H](C)/C=C/[C@H](C)C(C)C)[C@@]3(C)CC[C@@H]2[C@@]2(C)CC[C@H](O)C[C@@]23O[C@@H]13`: the Activity in data set [2] was 111%; in [3], 129%; in data set [4] it was “Dose-dependent effect”; in [5], 386%; in [6], 121%; in data set [7] it was 309%. The Activity result with HepG2 is “Non-toxic”; in data set [8], 162%; in data set [9], 156%; in data set [10], 346%; in [11], 99.6%. For the same compound, the EC50 in data set [1] came out at 6.4 µM.
Take `CCCCC/C=C\C/C=C\CCCCCCCC(=O)O[C@H]1C=C2[C@@H]3CC[C@H]([C@H](C)/C=C/[C@H](C)C(C)C)[C@@]3(C)CC[C@@H]2[C@@]2(C)CC[C@H](O)C[C@]12O`: in data set [1], the EC50 was more than 50 µM. The Activity entry with HepG2 was “Non-toxic”.
In the case of `CC(C)(Oc1ccc(C2CC2(Cl)Cl)cc1)C(=O)O` (centres undefined), in data set [12], the Activity was 311%.
In data set [1], `CCCCCCCCCCCCCCCCCC(=O)O[C@H]1CC[C@@]2(C)C(=CC=C3[C@@H]4CC[C@H]([C@H](C)/C=C/[C@H](C)C(C)C)[C@@]4(C)CC[C@@H]32)C1` registered a concentration for a half-maximal effect (EC50) of more than 50 µM. Besides, the Activity result with HepG2 is recorded as “Non-toxic”.
The matching figures for `CCCCCCCCCCCCCCCC(=O)O[C@H]1C=C2[C@@H]3CC[C@H]([C@H](C)/C=C/[C@H](C)C(C)C)[C@@]3(C)CC[C@@H]2[C@@]2(C)CC[C@H](O)C[C@]12O`: more than 50 µM and “Non-toxic”.
In the case of `CCCc1c(OCCCOc2ccc(OCC(=O)O)cc2)ccc(C(C)=O)c1O`, the Activity in data set [13] turned out to be 288%.
Turning to `CCCCC/C=C\C/C=C\CCCCCCCC(=O)O[C@H]1CC[C@]2(C)[C@H]3CC[C@]4(C)[C@@H]([C@H](C)/C=C/[C@H](C)C(C)C)CC[C@H]4C3=C[C@H](O)[C@@]2(O)C1`, the EC50 in data set [1] stood at 18.7 µM. Moreover, the Activity entry in the data set on HepG2 is on record as “Non-toxic”.
The corresponding values for `CCCCCCCCCCCCCCCCCC(=O)O[C@H]1CC[C@]2(C)[C@H]3CC[C@]4(C)[C@@H]([C@H](C)/C=C/[C@H](C)C(C)C)CC[C@H]4C3=C[C@H](O)[C@@]2(O)C1` are 20.6 µM and “Non-toxic”.
Turning to `CCCCCCCC/C=C\CCCCCCCC(=O)O[C@H]1C2=C3CC[C@H]([C@H](C)/C=C/[C@H](C)C(C)C)[C@@]3(C)CC[C@@H]2[C@@]2(C)CC[C@H](O)C[C@@]23O[C@@H]13`, the Activity in data set [2] was 102%; in data set [3], 114%; in [4], “Dose-dependent effect”; in [5], 314%; in data set [6] it was 112%; in data set [7], 289%. Also, the Activity entry in the data set with HepG2 is “Non-toxic”; in data set [8] it was 133%; in data set [9], 125%; in data set [10], 297%; in data set [11], 100%. The same compound yielded an EC50 in data set [1] of 8.2 µM.
Compound `CCCCC/C=C\C/C=C\CCCCCCCC(=O)O[C@H]1CC[C@]2(C)[C@@]3(O)CC[C@]4(C)[C@@H]([C@H](C)/C=C/[C@H](C)C(C)C)CC[C@H]4C3=C[C@H](O)[C@@]2(O)C1` returned a concentration giving a half-maximal response (EC50) in [1] of 22.3 µM. Further, the Activity entry in the data set with HepG2 was “Non-toxic”.
The matching figures for `CCCCCCCC/C=C\CCCCCCCC(=O)O[C@H]1C=C2[C@@H]3CC[C@H]([C@H](C)/C=C/[C@H](C)C(C)C)[C@@]3(C)CC[C@@H]2[C@@]2(C)CC[C@H](O)C[C@]12O`: more than 50 µM and “Non-toxic”.
